Measured values as given in ChEMBL document CHEMBL1148043, “Alectosarmentin, a new antimicrobial dibenzofuranoid lactol from the lichen, Alectoria sarmentosa” (1994).
The source made the active and inactive calls. The rule behind the calls is not given here.

How the values were obtained:
Staphylococcus aureus = assay: Antimicrobial activity against Staphylococcus aureus ATCC 13709 by agar-dilution streak method; type: functional
[1] = test system: Mycolicibacterium smegmatis; assay: Antimicrobial activity against Mycobacterium smegmatis ATCC 607 by agar-dilution streak method; type: functional
Pseudomonas aeruginosa = assay: Antimicrobial activity against Pseudomonas aeruginosa ATCC 27853 at 100 ug/ml by agar-dilution streak method; type: functional, organism-based
Escherichia coli [2] = assay: Antimicrobial activity against Escherichia coli ATCC 9637 at 100 ug/ml by agar-dilution streak method; type: functional, organism-based
[3] = test system: Salmonella enterica subsp. enterica serovar Gallinarum; assay: Antimicrobial activity against Salmonella gallinarum ATCC 9184 at 100 ug/ml by agar-dilution streak method; type: functional, organism-based
Klebsiella pneumoniae [4] = assay: Antimicrobial activity against Klebsiella pneumoniae ATCC 10031 at 100 ug/ml by agar-dilution streak method; type: functional, organism-based
Candida albicans [5] = assay: Antimicrobial activity against Candida albicans ATCC 10231 at 100 ug/ml by agar-dilution streak method; type: functional, organism-based
Candida albicans [6] = assay: Antimicrobial activity against Candida albicans ATCC 10231 by agar-dilution streak method; type: functional
Escherichia coli [7] = assay: Antimicrobial activity against Escherichia coli ATCC 9637 by agar-dilution streak method; type: functional
[8] = test system: Salmonella enterica subsp. enterica serovar Gallinarum; assay: Antimicrobial activity against Salmonella gallinarum ATCC 9184 by agar-dilution streak method; type: functional
Klebsiella pneumoniae [9] = assay: Antimicrobial activity against Klebsiella pneumoniae ATCC 10031 by agar-dilution streak method; type: functional

For `CCCCCC(=O)Cc1cc(O)cc2c1C(=O)Oc1cc(O)c(C(=O)O)c(CCCCC)c1O2` [PHYSODIC ACID], which Activity (Staphylococcus aureus) is on record?
The Activity was 25 µg/mL.

And the Activity [1]?
Its Activity is 100 µg/mL.

What about the Activity (Pseudomonas aeruginosa) of the same compound?
The Activity was “inactive”.

And the Activity (Escherichia coli [2])?
The Activity was “inactive”.

What about the Activity [3] of the same compound?
The Activity was “inactive”.

And the Activity (Klebsiella pneumoniae [4])?
Its Activity is “inactive”.

What about the Activity (Candida albicans [5]) of the same compound?
The Activity was “inactive”.

With `Cc1cc(O)cc2oc3cc(O)c4c(c3c12)C(O)OC4=O` (stereo not given) [ALECTOSARMENTIN] as the compound, how does the Activity (Staphylococcus aureus) read?
The Activity was 25 µg/mL.

And the Activity [1]?
The Activity was 25 µg/mL.

And the Activity (Pseudomonas aeruginosa)?
Its Activity is “inactive”.

And the Activity (Escherichia coli [2])?
Its Activity is “inactive”.

And the Activity [3]?
Its Activity is “inactive”.

And the Activity (Klebsiella pneumoniae [4])?
The Activity was “inactive”.

And the Activity (Candida albicans [5])?
Its Activity is “inactive”.

`CC(=O)C1=C(O)C=C2Oc3c(C(C)=O)c(O)c(C)c(O)c3[C@]2(C)C1=O` [(-)-USNIC ACID] was tested. Which Activity (Staphylococcus aureus) did it give?
The Activity was 25 µg/mL.

And the Activity [1]?
The Activity was 6.25 µg/mL.

And the Activity (Candida albicans [6])?
Its Activity is 50 µg/mL.

What about the Activity (Pseudomonas aeruginosa) of the same compound?
Its Activity is “inactive”.

And the Activity (Escherichia coli [2])?
The Activity was “inactive”.

What about the Activity [3] of the same compound?
The Activity was “inactive”.

What about the Activity (Klebsiella pneumoniae [4]) of the same compound?
The Activity was “inactive”.

With `CN[C@@H]1[C@H](O[C@H]2[C@H](O[C@H]3[C@H](O)[C@@H](O)[C@H](N=C(N)N)[C@@H](O)[C@@H]3N=C(N)N)O[C@@H](C)[C@]2(O)C=O)O[C@@H](CO)[C@H](O)[C@H]1O.CN[C@@H]1[C@H](O[C@H]2[C@H](O[C@H]3[C@H](O)[C@@H](O)[C@H](N=C(N)N)[C@@H](O)[C@@H]3N=C(N)N)O[C@@H](C)[C@]2(O)C=O)O[C@@H](CO)[C@H](O)[C@H]1O.O=S(=O)(O)O.O=S(=O)(O)O.O=S(=O)(O)O` [STREPTOMYCIN SULFATE] as the compound, how does the Activity (Staphylococcus aureus) read?
The Activity was 5 µg/mL.

What about the Activity (Escherichia coli [7]) of the same compound?
Its Activity is 5 µg/mL.

And the Activity [8]?
The Activity was 50 µg/mL.

What about the Activity (Klebsiella pneumoniae [9]) of the same compound?
Its Activity is 2.5 µg/mL.

What about the Activity [1] of the same compound?
The Activity was 1.25 µg/mL.

What about the Activity (Pseudomonas aeruginosa) of the same compound?
The Activity was “inactive”.

And the Activity (Candida albicans [5])?
Its Activity is “inactive”.

With `CCCCCc1cc2cc(O)cc(Oc3c(O)cc(O)c4c3CC(CCCCC)(OCC)OC4=O)c2c(=O)o1` (stereo not given) as the compound, how does the Activity (Staphylococcus aureus) read?
Its Activity is 50 µg/mL.

What about the Activity [1] of the same compound?
Its Activity is 50 µg/mL.

And the Activity (Candida albicans [6])?
The Activity was 100 µg/mL.

And the Activity (Pseudomonas aeruginosa)?
Its Activity is “inactive”.

And the Activity (Escherichia coli [2])?
Its Activity is “inactive”.

And the Activity [3]?
The Activity was “inactive”.

What about the Activity (Klebsiella pneumoniae [4]) of the same compound?
The Activity was “inactive”.
